The source of these data is patent US4902791A, “Nitrosourea derivatives, process for their preparation and medicaments containing them” (Sanofi S.A., priority 1983, dated 1990).

Where only a bound is given, the exact number is not on record here.

Series [1] deals with L1210 U.S.A. The experiment in a line: antitumor activity on leukemia L1210 U.S.A., products of examples 33-39, I.P. In kind it is in vivo, mouse. The procedure: The experiments were always carried out on female mice which were specific pathogen-free (S. P. F.),
either of the line DBA/2JIco
or of the line B6 D2 F1/JIco (first generation hybrids between the lines C57BL/6 and DBA/2).
On the day of the graft (by convention day 0=D0) an inoculum of 1×10^5 tumor cells in a volume of 0.2 ml is administered to each mouse by the intraperitoneal route (I.P.).
This inoculum is prepared by diluting ascites fluid taken from the peritoneum of a donor female mouse in NCTC 109 medium (Eurobio Laboratories, Paris, France), counting of the cells in a MALASSEZ cell under a microscope and adjustment of the concentration to 5×10^5cells […] by means of the same medium.
The tumor line is an American strain of the line L1210.
After the tumor graft, the mice are distributed at random in cages of 5 animals. Subsequently, these cages containing 5 mice are themselves distributed at random into a control group (control) and groups treated with the I.C. products.
(§1) The doses of the products of the invention used in the different experiments are expressed in milligrams per kilogram of body weight.
(§2) The products to be injected were dissolved in isotonic sodium chloride solution.
2 protocols for treatment were used in the different experiments:
either a single injection on D1, by the intraperitoneal (I.P.) or intravenous (I.V.) route,
(§3) or 3 I.P. injections on D1, D5, D9.
In each experiment the animals of the control group received 1 or more injections, depending on the experimental protocol used, by the same route (I.P. or I.V.) of the same volume (0.2 ml/20 g) of the vehicle without the active principle (isotonic sodium chloride solution).
(§4) the number and percentage of the total of the mice surviving to D60,
the T/C×100 for the treated groups.
T representing the mean survival time of the mice in the treated group,
C representing the mean survival time of the mice in the control group (controls).

A short description of series [2]: toxicological results, single I.P. dose, DL0 and DL50. The format is in vivo, mouse. The settings on record: mice. From the text: DL0, DL50, single I.P. dose administered to the aforementioned strains of mice.
A short description of series [3]: toxicological study, lethal doses (Table IA). The note with it: mouse, in vivo. From the text:
The results relating to toxicology are brought together in Table IA below:

Series [4] relates to L1210 U.S.A. strain. The experiment in a line: antitumor activity on leukemia L1210 U.S.A., compounds of formula IA, I.P. In kind it is in vivo, mouse. Here is the method: On the day of the graft (by convention day 0=DO) an inoculum of 1×10^5 tumor cells in a volume of 0.2 ml is administered to each mouse by the intraperitoneal route (I.P.).
This inoculum is prepared by diluting ascites fluid taken from the peritoneum of a donor female mouse in NCTC 109 medium (Eurobio Laboratories Paris, France), counting of the cells in a MALASSEZ cell under a microscope and adjustment of the concentration to 5×10^5cells per ml.
After the tumor graft has been made, the mice are distributed at random in cages of 5 animals. Subsequently, these cages containing 5 mice are themselves distributed at random into a control group (control) and groups treated with the products of the invention.
as §1, §2
Two protocols for treatment were used in the different experiments:
as §3
(§5) In each experiment the animals of the control group received 1 or more injections, depending on the experimental protocol used, by the same route (I.P. or I.V.) of the same volume (0.2 ml/20 g) of the vehicle not containing the active principle (isotonic sodium chloride solution).
as §4
(§6) the T/C×100 for treated groups.
(§7) T representing the mean survival time of the mice in the treated group
(§8) C representing the mean survival time of the mice in the control group (control).

In series [5] the test system is melanoma B16. Description: antitumor activity on melanoma B16, compounds of formula IA, I.P. The format is in vivo, mouse. The note with it: B6 D2 F1, I.P. D1, D5, D9, 3×10 mg/kg. The procedure: The experiments were always carried out on SPF female mice B6 D2 F1/JIco (first generation hybrids between the lines C5BL/6 and DBA/2).
On the day of the graft (Day 0) an inoculum of 2×10^6 tumor cells in a volume of 0.5 ml is administered to each mouse by the intraperitoneal route (I.P.). This inoculum is prepared from a sub-cutaneous tumor excised from a donor female mouse. After excision the tumor is fragmented by means of a pair of scissors in the NCTC 109 medium. After filtration through sterile gauze in order to remove large cellular fragments, the homogeneous cell suspension obtained is counted by means of a MALASSEZ cell and diluted to the desired concentration (4×10^6 tumor cells per ml) by dilution with the NCTC 109 medium.
This was performed in the manner described previously for the leukemia L1210.
as §1, §2, §3, §5, §4, §6, §7, §8

Where [6] appears, read: DBA2, I.P. D1, D5, D9, 3×2.5 mg/kg.
The mark [7] stands for this setting: DBA2, I.P. D1, D5, D9, 3×10 mg/kg.
[8] abbreviates: B6 D2 F1, I.P. D1, D5, D9, 3×1.25 mg/kg.
Setting [9] is: B6 D2 F1, I.P. D1, D5, D9, 3×5 mg/kg.

One may read the LD50 as the dose at which mortality reaches 50%.

On to `CO[C@H]1O[C@@H](C)C[C@@H](NC(=O)N(CCCl)N=O)[C@@H]1O` [IC. 85-1627, methyl 3-[3-(2-chloroethyl) 3-nitrosoureido] 3,4,6-trideoxyβ-L-xylo-hexopyranoside], for which the “Number of survivors on D60” value in series [1] (DBA2, I.P. D1, 1×20 mg/kg) is recorded as 3/10. In series [1] (setting [6]), the “Number of survivors on D60” value is on record as 0/10 and the T/C was 141. In series [1] (setting [7]), the “Number of survivors at D60” value is 6/10 and the T/C was more than 600. Moreover, the DL0 in series [2] is reported as not below 40 mg/kg.

The compound `CO[C@H]1O[C@H](CO)C[C@H](NC(=O)N(CCCl)N=O)[C@H]1O` [CI. 1677, methyl 3-[3-(2-chloroethyl) 3-nitroso-ureido] 3,4-dideoxy-α-D-xylo-hexopyranoside] came in with an LD90 in series [3] not above 20 mg/kg. For the same compound, the “Number of survivors at D60” value is listed as 0/10 in series [4] (setting [8]), 6/10 in series [4] (setting [9]) and 7/10 in series [5]. For the same compound, the T/C in series [4] (setting [8]) is 157; in series [4] (setting [9]), more than 600; in series [5], 257.

With `CO[C@H]1O[C@H](CO)[C@H](Cl)[C@H](NC(=O)N(CCCl)N=O)[C@H]1O` [CI. 1676, methyl 4-chloro 3-[3-(2-chloro-ethyl) 3-nitrosoureido] 3,4-dideoxy-α-D-galacto-hexopyranoside], in series [3], the LD0 is reported as not below 20 mg/kg. In addition, the “Number of survivors at D60” value is reported as 0/10 in series [4] (setting [8]), 0/10 in series [4] (setting [9]) and 3/10 in series [5]. Further, the T/C in series [4] (setting [8]) was 136; in series [4] (setting [9]) it was 188; in series [5], 202.

For the compound `CO[C@@H]1O[C@H](COC(=O)c2ccccc2)C[C@H](NC(=O)N(CCCl)N=O)[C@H]1O` [CI. 1674, methyl 3-[3-(2-chloroethyl)-3 nitrosoureido] 6-benzoyl 3,4-dideoxy-β-D-xylo-hexopyranoside], the LD0 in series [3] was not below 40 mg/kg. In addition, in series [4] (setting [8]), the “Number of survivors at D60” value is 0/10 and the T/C came out at 111. In addition, in series [4] (setting [9]), the “Number of survivors at D60” value is reported as 0/10 and the T/C stood at 130.

In the case of `CO[C@H]1C[C@@H](NC(=O)N(CCCl)N=O)[C@H](O)[C@@H](C)O1` [IC. 85-1625, methyl 3-[3-(2-chloroethyl) 3-nitrosoureido] 2,3,6-trideoxyβ-L-arabino-hexopyranoside], in series [1] (setting [7]), the “Number of survivors at D60” value is listed as 0/10 and the T/C was found to be 190. The compound further gave a DL0 in series [2] not below 40 mg/kg.

For `CO[C@@H]1O[C@@H](C)C[C@@H](NC(=O)N(CCCl)N=O)[C@@H]1O` [IC. 85-1626, methyl 3-[3-(2-chloroethyl) 3-nitrosoureido] 3,4,6-trideoxyα-L-xylo-hexopyranoside], the “Number of survivors on D60” value in series [1] (DBA2, I.P. D1, 1×20 mg/kg) is 3/10. Moreover, in series [1] (setting [6]), the “Number of survivors on D60” value was 0/10 and the T/C was 150. Besides, in series [1] (setting [7]), the “Number of survivors at D60” value is reported as 3/10 and the T/C was 275. Moreover, the DL0 in series [2] is reported as not below 20 mg/kg. In addition, the LD50 in series [2] (mouse, in vivo, ip) was approximately 40 mg/kg.
